Assay results published in ChEMBL document CHEMBL4000146, “Synthesis, antiplasmodial activity and mechanistic studies of pyrimidine-5-carbonitrile and quinoline hybrids” (Eur J Med Chem, 2015).

What was measured:
[1] = Cytotoxicity against human HEL cells assessed as alteration of normal cell morphology by microscopic analysis; format: cell-based
Coxsackievirus [2] = format: functional; settings: B4, Vero
Plasmodium falciparum [3] = assay: microbe, parasite or virus in culture; settings: NF54
[4] = Selectivity index, ratio of IC50 for human HeLa cells to IC50 for chloroquine-sensitive asexual intraerythrocytic stage of Plasmodium falciparum NF54; format: toxicity, cell-based; settings: read-out: Ratio IC50
Influenza A virus [5] = assay: microbe, parasite or virus in culture; settings: H1N1, MDCK
Human alphaherpesvirus 1 [6] = format: functional, cell-based; settings: Human alphaherpesvirus 1, KOS, HEL
Human alphaherpesvirus 2 = format: functional, cell-based; settings: Human alphaherpesvirus 2, G, HEL
[7] = tested on: Vesicular stomatitis virus; assay: microbe, parasite or virus in culture; settings: HEL
[8] = Cytotoxicity against human HeLa cells assessed as alteration of normal cell morphology by microscopic analysis; format: cell-based
[9] = Cytotoxicity against MDCK cells assessed as inhibition of cell viability by colorimetric formazan-based MTS assay; parameters: species or system Canis lupus familiaris; settings: dog
Human betaherpesvirus 5 [10] = format: functional, cell-based; settings: Human betaherpesvirus 5, AD169, HEL
Human alphaherpesvirus 3 [11] = format: functional, cell-based; settings: Human alphaherpesvirus 3, 07-1, HEL
Coxsackievirus [12] = format: functional, cell-based; settings: B4, HeLa
Human betaherpesvirus 5 [13] = format: functional, cell-based; settings: Human betaherpesvirus 5, Davis, HEL
Plasmodium falciparum [14] = assay: microbe, parasite or virus in culture; settings: Dd2
Plasmodium falciparum [15] = assay: Resistance index, ratio of IC50 for chloroquine-resistant asexual intraerythrocytic stage of Plasmodium falciparum Dd2 to IC50 for chloroquine-sensitive asexual intraerythrocytic stage of Plasmodium falciparum NF54; format: functional
Human orthopneumovirus = format: functional, cell-based; settings: human respiratory syncytial virus, HeLa
Human respirovirus 3 = format: functional; settings: Human respirovirus 3, Vero
Punta Toro virus = format: functional; settings: Vero
Vaccinia virus = assay: microbe, parasite or virus in culture; settings: Orthopoxvirus vaccinia, HEL
Influenza B virus = assay: microbe, parasite or virus in culture; settings: MDCK
Plasmodium falciparum [16] = assay: Potency index, ratio of chloroquine IC50 to test compound IC50 for chloroquine-resistant asexual intraerythrocytic stage of Plasmodium falciparum Dd2; format: functional
unidentified adenovirus = format: functional, cell-based; settings: HEL
Human alphaherpesvirus 1 [17] = format: functional, cell-based; settings: Human alphaherpesvirus 1, KOS, HEL; remark: listed apart in the source
[18] = Selectivity index, ratio of IC50 for human HeLa cells to IC50 for chloroquine-resistant asexual intraerythrocytic stage of Plasmodium falciparum Dd2; format: toxicity, cell-based; settings: read-out: Ratio IC50
[19] = tested on: Vesicular stomatitis virus; assay: microbe, parasite or virus in culture; settings: HeLa
[20] = Cytotoxicity against african green monkey Vero cells assessed as alteration of normal cell morphology by microscopic analysis; format: cell-based; settings: chlorocebus sabaeus
[21] = tested on: Mammalian orthoreovirus 1; format: functional; settings: Mammalian orthoreovirus 1, Vero
CCRF-CEM = assay: Cytotoxicity against human CEM cells assessed as inhibition of cell proliferation by Coulter counter analysis; format: cell-based
Sindbis virus = format: functional; settings: Vero
[22] = Cytotoxicity against human HEL cells assessed as inhibition of cell viability by colorimetric formazan-based MTS assay
HeLa = assay: Cytotoxicity against human HeLa cells assessed as inhibition of cell proliferation by Coulter counter analysis; format: cell-based
[23] = Cytotoxicity against MDCK cells assessed as alteration of normal cell morphology by microscopic analysis; format: cell-based, Canis lupus familiaris; settings: dog
Influenza A virus [24] = assay: microbe, parasite or virus in culture; settings: H3N2, MDCK
Human alphaherpesvirus 3 [25] = format: functional, cell-based; settings: Human alphaherpesvirus 3, strain Oka vaccine, HEL
L1210 = assay: Cytotoxicity against mouse L1210 cells assessed as inhibition of cell proliferation by Coulter counter analysis; format: cell-based

Compound	MCC [1] [µM]	EC50 (Coxsackievirus [2]) [µM]	IC50 (Plasmodium falciparum [3]) [µM]	selectivity ratio [4]	EC50 (Influenza A virus [5]) [µM]	EC50 (Human alphaherpesvirus 1 [6]) [µM]	EC50 (Human alphaherpesvirus 2) [µM]	EC50 [7] [µM]	MCC [8] [µM]	CC50 [9] [µM]	EC50 (Human betaherpesvirus 5 [10]) [µM]	EC50 (Human alphaherpesvirus 3 [11]) [µM]	EC50 (Coxsackievirus [12]) [µM]	EC50 (Human betaherpesvirus 5 [13]) [µM]	IC50 (Plasmodium falciparum [14]) [µM]	Ratio IC50 (Plasmodium falciparum [15])	EC50 (Human orthopneumovirus) [µM]	EC50 (Human respirovirus 3) [µM]	EC50 (Punta Toro virus) [µM]	EC50 (Vaccinia virus) [µM]	further results
COc1cc(-c2nc(SC)nc(NCCCCNc3ccnc4cc(Cl)ccc34)c2C#N)cc(OC)c1OC	4 to 20	> 0.8	0.0909	37.4	> 0.8	> 0.8	> 0.8	> 0.8	20	2	> 4	> 4	> 4	> 4	0.0895	0.98	> 4	> 0.8	> 0.8	> 0.8	EC50 (Influenza B virus): > 0.8 µM; Ratio IC50 (Plasmodium falciparum [16]): 3; EC50 (unidentified adenovirus): > 0.8 µM; EC50 (Human alphaherpesvirus 1 [17]): > 0.8 µM; selectivity ratio [18]: 37.9; EC50 [19]: > 4 µM; MCC [20]: 4 µM; EC50 [21]: > 0.8 µM; IC50 (CCRF-CEM): 3.6 µM; EC50 (Sindbis virus): > 0.8 µM; CC50 [22]: 1.5 µM; IC50 (HeLa): 3.4 µM; MCC [23]: 4 µM; EC50 (Influenza A virus [24]): > 0.8 µM; EC50 (Human alphaherpesvirus 3 [25]): > 4 µM; IC50 (L1210): 3.8 µM
COc1ccc(-c2nc(SC)nc(NCCCCNc3ccnc4cc(Cl)ccc34)c2C#N)cc1OC	≥ 100	> 100	0.193	104	> 4	> 100	> 100	> 100	100	10	> 20	> 20	> 20	> 20	1.28	6.65	> 20	> 100	> 100	> 100	EC50 (Influenza B virus): > 4 µM; EC50 (unidentified adenovirus): > 20 µM; EC50 (Human alphaherpesvirus 1 [17]): > 100 µM; selectivity ratio [18]: 15.5; EC50 [19]: > 20 µM; MCC [20]: > 100 µM; EC50 [21]: > 100 µM; IC50 (CCRF-CEM): 16 µM; EC50 (Sindbis virus): > 100 µM; CC50 [22]: 84.1 µM; IC50 (HeLa): 20 µM; MCC [23]: 20 µM; EC50 (Influenza A virus [24]): > 4 µM; EC50 (Human alphaherpesvirus 3 [25]): > 20 µM; IC50 (L1210): 18 µM
CSc1nc(-c2ccc([N+](=O)[O-])cc2)c(C#N)c(N2CCN(c3ccnc4cc(Cl)ccc34)CC2)n1	≥ 100	> 20	12.2	18.6	> 100	> 100	> 100	> 100	> 100	> 100	> 100	> 100	> 100	> 100	9.86	0.8	> 100	> 20	> 20	> 100	EC50 (Influenza B virus): > 100 µM; EC50 (unidentified adenovirus): > 100 µM; EC50 (Human alphaherpesvirus 1 [17]): > 100 µM; selectivity ratio [18]: 23.1; EC50 [19]: > 100 µM; MCC [20]: 100 µM; EC50 [21]: > 20 µM; IC50 (CCRF-CEM): 156 µM; EC50 (Sindbis virus): > 20 µM; CC50 [22]: > 100 µM; IC50 (HeLa): 228 µM; MCC [23]: > 100 µM; EC50 (Influenza A virus [24]): > 100 µM; EC50 (Human alphaherpesvirus 3 [25]): > 100 µM; IC50 (L1210): 206 µM
